Reference: ChEMBL document CHEMBL1201861, “Genomics of Drug Sensitity in Cancer screening data, Wellcome Trust Sanger Institute”

How the values were obtained:
Test in all cases: cells
CTB-1 = assay type: functional, cell-based; settings: Homo sapiens
Description: SANGER: Inhibition of human CTB-1 cell growth in a cell viability assay.

LU-134-A = assay type: functional, cell-based; settings: Homo sapiens
Description: SANGER: Inhibition of human LU-134-A cell growth in a cell viability assay.

no-11 = assay type: functional, cell-based, Homo sapiens; settings: Homo sapiens;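 also: growth inhibition of human NO-11 cells, read out with a cell viability assay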
Description: SANGER: Inhibition of human no-11 cell growth in a cell viability assay.

NB10 = assay type: functional, cell-based, Homo sapiens; settings: Homo sapiens, NB10;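 also: growth inhibition of NB10 cells, read out by a cell viability assay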
Description: SANGER: Inhibition of human NB10 cell growth in a cell viability assay.

MS-1 = assay type: functional, cell-based; settings: Homo sapiens
Description: SANGER: Inhibition of human MS-1 cell growth in a cell viability assay.

TE-9 = assay type: functional, cell-based, Homo sapiens; settings: Homo sapiens, TE-9;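 also: cell growth inhibition, measured with a cell viability readout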
Description: SANGER: Inhibition of human TE-9 cell growth in a cell viability assay.

NCI-H1581 = assay type: functional, cell-based, Homo sapiens; settings: Homo sapiens, NCI-H1581;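 also: cell growth inhibition read out by a viability assay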
Description: SANGER: Inhibition of human NCI-H1581 cell growth in a cell viability assay.

SK-PN-DW = assay type: functional, cell-based; settings: Homo sapiens;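 also: growth inhibition measured with a viability assay on these cells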
Description: SANGER: Inhibition of human SK-PN-DW cell growth in a cell viability assay.

NB6 = assay type: functional, cell-based, Homo sapiens; settings: Homo sapiens, NB6;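 also: growth inhibition of NB6 cells, read out by a cell viability assay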
Description: SANGER: Inhibition of human NB6 cell growth in a cell viability assay.

RCC10RGB = assay type: functional, cell-based, Homo sapiens; settings: Homo sapiens, RCC10RGB;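 also: growth inhibition of human RCC10RGB cells, read out by a cell viability assay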
Description: SANGER: Inhibition of human RCC10RGB cell growth in a cell viability assay.

CW-2 = assay type: functional, cell-based, Homo sapiens; settings: Homo sapiens, CW-2;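 also: growth inhibition of CW-2 cells, read out by a cell viability assay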
Description: SANGER: Inhibition of human CW-2 cell growth in a cell viability assay.

U-266 = assay type: functional, cell-based; settings: Homo sapiens
Description: SANGER: Inhibition of human U-266 cell growth in a cell viability assay.

EW-18 = assay type: functional, cell-based; settings: Homo sapiens;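 also: growth inhibition of EW-18 cells, read out by a cell viability assay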
Description: SANGER: Inhibition of human EW-18 cell growth in a cell viability assay.

SW 954 = assay type: functional, cell-based, Homo sapiens; settings: Homo sapiens, SW 954;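 also: growth inhibition of SW954 human cancer cells, read out as cell viability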
Description: SANGER: Inhibition of human SW954 cell growth in a cell viability assay.

RS4-11 = assay type: functional, cell-based; settings: Homo sapiens;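 also: growth inhibition of RS4-11 cells, read out by a cell viability assay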
Description: SANGER: Inhibition of human RS4-11 cell growth in a cell viability assay.

CCRF-CEM = assay type: functional, cell-based; settings: Homo sapiens;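 also: inhibition of CCRF-CEM cell growth, measured by a cell viability assay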
Description: SANGER: Inhibition of human CCRF-CEM cell growth in a cell viability assay.

NCI-H1299 = assay type: functional, cell-based, Homo sapiens; settings: Homo sapiens, NCI-H1299;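 also: growth inhibition of human NCI-H1299 cells, read out by a cell viability assay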
Description: SANGER: Inhibition of human NCI-H1299 cell growth in a cell viability assay.

NB5 = assay type: functional, cell-based, Homo sapiens; settings: Homo sapiens, NB5;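 also: growth inhibition of NB5 cells, read out as cell viability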
Description: SANGER: Inhibition of human NB5 cell growth in a cell viability assay.

BE-13 = assay type: functional, cell-based; settings: Homo sapiens;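 also: growth inhibition of human BE-13 cells, measured with a cell viability assay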
Description: SANGER: Inhibition of human BE-13 cell growth in a cell viability assay.

ETK-1 = assay type: functional, cell-based, Homo sapiens; settings: Homo sapiens, ETK-1;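 also: growth inhibition of human ETK-1 cells, read out with a cell viability assay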
Description: SANGER: Inhibition of human ETK-1 cell growth in a cell viability assay.

KMOE-2 = assay type: functional, cell-based; settings: Homo sapiens;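 also: growth inhibition of human KMOE-2 cells, read out with a cell viability assay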
Description: SANGER: Inhibition of human KMOE-2 cell growth in a cell viability assay.

CGTH-W-1 = assay type: functional, cell-based, Homo sapiens; settings: Homo sapiens, CGTH-W-1;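 also: growth inhibition of human CGTH-W-1 cells measured by cell viability assay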
Description: SANGER: Inhibition of human CGTH-W-1 cell growth in a cell viability assay.

DMS-114 = assay type: functional, cell-based, Homo sapiens; settings: Homo sapiens, DMS-114
NB13 = assay type: functional, cell-based, Homo sapiens; settings: Homo sapiens, NB13;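 also: cell viability readout measuring growth inhibition of human NB13 cells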
Description: SANGER: Inhibition of human NB13 cell growth in a cell viability assay.

NOS-1 = assay type: functional, cell-based, Homo sapiens; settings: Homo sapiens, NOS-1;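 also: growth inhibition of the human NOS-1 cell line, read out with a cell viability assay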
Description: SANGER: Inhibition of human NOS-1 cell growth in a cell viability assay.

ALL-PO = assay type: functional, cell-based; settings: Homo sapiens;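 also: growth inhibition of ALL-PO cells, read out by a cell viability assay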
Description: SANGER: Inhibition of human ALL-PO cell growth in a cell viability assay.

| SMILES | IC50 (CTB-1) | IC50 (LU-134-A) | IC50 (no-11) | IC50 (NB10) | IC50 (MS-1) | IC50 (TE-9) | IC50 (NCI-H1581) | IC50 (SK-PN-DW) | IC50 (NB6) | IC50 (RCC10RGB) | IC50 (CW-2) | IC50 (U-266) | IC50 (EW-18) | IC50 (SW 954) | IC50 (CCRF-CEM) | IC50 (NB5) | IC50 (BE-13) | IC50 (ETK-1) | IC50 (KMOE-2) | IC50 (CGTH-W-1) | other results |
| --- | --- | --- | --- | --- | --- | --- | --- | --- | --- | --- | --- | --- | --- | --- | --- | --- | --- | --- | --- | --- | --- |
| CN1CCN(CCOc2cc(OC3CCOCC3)c3c(Nc4c(Cl)ccc5c4OCO5)ncnc3c2)CC1 [SARACATINIB] | > 2 µM | > 2 µM | > 2 µM | > 2 µM | > 2 µM | > 2 µM | > 2 µM | > 2 µM | > 2 µM | > 2 µM | > 2 µM | > 2 µM | > 2 µM | > 2 µM | > 2 µM | > 2 µM | > 2 µM | > 2 µM | > 2 µM | > 2 µM | IC50 (RS4-11): > 2 µM; IC50 (NCI-H1299): > 2 µM; IC50 (DMS-114): > 2 µM; IC50 (NB13): > 2 µM; IC50 (NOS-1): 0.605 µM; IC50 (ALL-PO): > 2 µM |
| CO[C@H]1C[C@@H]2CC[C@@H](C)[C@@](O)(O2)C(=O)C(=O)N2CCCC[C@H]2C(=O)O[C@H]([C@H](C)C[C@@H]2CC[C@@H](O)[C@H](OC)C2)CC(=O)[C@H](C)/C=C(\C)[C@@H](O)[C@@H](OC)C(=O)[C@H](C)C[C@H](C)/C=C/C=C/C=C/1C [SIROLIMUS] | > 0.1 µM | > 0.1 µM | 0.0832 µM | > 0.1 µM | > 0.1 µM | > 0.1 µM | > 0.1 µM | 0.0202 µM | > 0.1 µM | > 0.1 µM | > 0.1 µM | > 0.1 µM | > 0.1 µM | > 0.1 µM | 0.00494 µM | > 0.1 µM | 0.00299 µM | 0.00282 µM | > 0.1 µM | > 0.1 µM | IC50 (RS4-11): > 0.1 µM; IC50 (NCI-H1299): > 0.1 µM; IC50 (DMS-114): > 0.1 µM; IC50 (NB13): 0.00436 µM; IC50 (NOS-1): 0.000871 µM; IC50 (ALL-PO): > 0.1 µM |
| CNC(=O)c1cc(Oc2ccc(NC(=O)Nc3ccc(Cl)c(C(F)(F)F)c3)cc2)ccn1 [SORAFENIB] | > 4 µM | > 4 µM | > 4 µM | > 4 µM | > 4 µM | > 4 µM | > 4 µM | > 4 µM | > 4 µM | > 4 µM | > 4 µM | > 4 µM | > 4 µM | > 4 µM | > 4 µM | > 4 µM | 2.7 µM | > 4 µM | 2.81 µM | 0.25 µM | IC50 (NCI-H1299): > 4 µM; IC50 (DMS-114): > 4 µM; IC50 (NB13): > 4 µM; IC50 (NOS-1): 0.564 µM; IC50 (ALL-PO): 0.0318 µM |
| CCC(=O)N1CCN(c2ccc(-n3c(=O)ccc4cnc5ccc(-c6cnc7ccccc7c6)cc5c43)cc2C(F)(F)F)CC1 [TORIN1] | 0.222 µM | 0.553 µM | 0.014 µM | > 1.2 µM | 0.402 µM | 0.29 µM | 0.297 µM | 0.0495 µM | 0.0527 µM | > 1.2 µM | > 1.2 µM | 0.132 µM | > 1.2 µM | 0.0379 µM | 0.0337 µM | 0.0963 µM | 0.0376 µM | < 0.00469 µM | 0.275 µM | 0.184 µM | IC50 (RS4-11): 0.0594 µM; IC50 (DMS-114): 0.24 µM; IC50 (NB13): 0.0478 µM; IC50 (NOS-1): 0.00242 µM; IC50 (ALL-PO): 0.0496 µM |
| Cc1cc(Nc2cc(N3CCN(C)CC3)nc(Sc3ccc(NC(=O)C4CC4)cc3)n2)n[nH]1 [TOZASERTIB] | > 2 µM | > 2 µM | > 2 µM | > 2 µM | > 2 µM | > 2 µM | > 2 µM | 0.791 µM | 0.773 µM | > 2 µM | > 2 µM | > 2 µM | > 2 µM | 0.122 µM | 0.653 µM | 1.64 µM | 0.00338 µM | 1.14 µM | > 2 µM | > 2 µM | IC50 (RS4-11): 0.00404 µM; IC50 (DMS-114): > 2 µM; IC50 (NB13): 0.28 µM; IC50 (NOS-1): > 2 µM; IC50 (ALL-PO): 0.882 µM |
